For this assay, the target named is T1, Epithelial sodium channel subunit alpha (Mus musculus, UniProt Q61180).
T1 sequence (Q61180 whole entry): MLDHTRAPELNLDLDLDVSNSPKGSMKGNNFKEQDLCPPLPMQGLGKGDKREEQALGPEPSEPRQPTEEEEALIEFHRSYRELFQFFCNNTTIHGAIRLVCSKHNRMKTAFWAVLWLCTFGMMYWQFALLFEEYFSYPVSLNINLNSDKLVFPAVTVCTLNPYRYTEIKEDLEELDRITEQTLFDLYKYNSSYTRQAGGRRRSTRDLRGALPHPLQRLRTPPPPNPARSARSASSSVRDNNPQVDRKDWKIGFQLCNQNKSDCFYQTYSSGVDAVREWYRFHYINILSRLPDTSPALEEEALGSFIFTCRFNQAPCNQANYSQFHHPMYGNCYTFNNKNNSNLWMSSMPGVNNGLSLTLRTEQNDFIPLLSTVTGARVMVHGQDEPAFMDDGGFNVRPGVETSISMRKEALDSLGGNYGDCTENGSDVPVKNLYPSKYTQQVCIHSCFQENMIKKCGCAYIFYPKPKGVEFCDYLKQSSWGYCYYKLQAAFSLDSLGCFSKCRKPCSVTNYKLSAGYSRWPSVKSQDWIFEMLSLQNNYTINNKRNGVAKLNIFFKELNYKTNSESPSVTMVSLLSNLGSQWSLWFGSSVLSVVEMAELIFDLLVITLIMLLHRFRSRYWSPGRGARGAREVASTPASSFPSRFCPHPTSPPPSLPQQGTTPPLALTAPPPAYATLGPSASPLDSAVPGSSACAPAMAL
In words: Inhibition of ENaC in mouse M1 assessed as effect on trans epithelial electrical resistance by measuring short circuit currents by voltage-clamp based Ussing chamber assay.

As usually defined, the IC50 is the concentration that inhibits the measured activity by half.

With `COc1ccc(CCC[N@@+]2(C)CCC[C@H](NC(=O)c3nc(Cl)c(N)nc3N)C2)cc1`, the IC50 was 70 nM.

Consider `COc1ccc(CCC[N+]2(CCCc3ccc(C(=O)NCCCN(C)C)cc3)CCCC(NC(=O)c3nc(Cl)c(N)nc3N)C2)cc1` (stereo unspecified), for which the IC50 came out at 20 nM. In the case of `COc1ccc(CCC[N+]2(CCCc3ccccc3)CCCC(NC(=O)c3nc(Cl)c(N)nc3N)C2)cc1` (stereo unspecified), the concentration for half-maximal inhibition (IC50) turned out to be 6 nM.

In the case of `Nc1nc(N)c(C(=O)N[C@H]2CCC[N+](CCCc3ccc(OCC(=O)NCCn4ccnc4)cc3)(CCCc3ccc(OCC(=O)NCCn4ccnc4)cc3)C2)nc1Cl`, the IC50 is 9 nM.

For `Nc1nc(N)c(C(=O)N[C@H]2CCC[N+](CCCc3ccc(OCC(=O)NCCCO)cc3)(CCCc3ccc(OCC(=O)NCCCO)cc3)C2)nc1Cl`, the IC50 worked out at 13 nM. Under `Nc1nc(N)c(C(=O)N[C@H]2CCC[N+](CCCc3ccc(OCC(=O)NCCc4ccccn4)cc3)(CCCc3ccc(OCC(=O)NCCc4ccccn4)cc3)C2)nc1Cl` stands 6 nM.

The record behind these values is ChEMBL document CHEMBL3608293, “Novel Pyrazine Amide Compounds” (ACS Med Chem Lett, 2015).
